Assay results published in patent US11426385B2, “Methods of improving cancer chemotherapy” (THE REGENTS OF THE UNIVERSITY OF CALIFORNIA, priority 2017, dated 2022).
Values joined by “and” are separate entries in the source; they are usually repeats but may differ in a detail not shown here. Equal values may be shown once.

Key:
COX-1 and COX-2 = settings: cited from earlier work
[1] = test system: bladder cancer PDX BL0293; experiment: tumor growth and survival in NSG-PDX bladder cancer mouse model BL0293; type: in vivo, NSG mice
Description: (§1) Materials and Supplies. Bladder cancer subject-derived xenograft (PDX) models were provided by The Jackson Laboratory (JAX, Bar Harbor, Me.). […] All experiments utilized PDX models within the first five passages. […] Gemcitabine was purchased from LC Laboratories (Woburn, Mass.). […] The cell lines have not been tested and authenticated by the authors.
(§2) PDX bladder cancer. NSG PDX studies were performed at the University of California Davis with IACUC approval. […] Gemcitabine was dissolved in 0.9% saline and administered at a dose of 150 mg/kg (IP, weekly) for 4 weeks. Animal weight and tumor size were measured twice per week. […] The percentage of tumor growth inhibition (TGI) was calculated as follows; 100%×(1−[(V^treated(final day)−V^treated(initial day))/(V^control(final day)−V^control(initial day))]), where V is tumor volume.
(§3) Statistics. Data are presented as mean±standard error of the mean (SEM) or mean±standard deviation (SD). Group comparisons were carried out using one-way analysis of variance or Student's t test. Survival analysis was performed using the Kaplan-Meier method. A p value of less than 0.05 was considered statistically significant.

[2] = test system: bladder cancer PDX BL0269; experiment: tumor growth in NSG-PDX bladder cancer mouse model BL0269; type: in vivo, NSG mice
Description: as §1, §2, §3

p-ERK and p-AKT = experiment: Western blot of PDX BL0293 tumor tissue; type: in vivo, NSG mice; settings: day 3; BL0293 tumors
Description: Blood samples from mice were collected and analyzed for complete blood count (CBC), blood urea nitrogen (BUN), aspartate aminotransferase (AST), creatinine and total bilirubin at the Veterinary Medicine Comparative Pathology Laboratory of University of California Davis. The tumor, heart, liver, spleen, lung and kidney were harvested and the tissue samples were fixed in formalin or frozen at −80° C. Tumor sections were stained with hematoxylin and eosin (H&E) or were used for immunohistochemistry analysis. A board-certified pathologist provided detailed interpretation of tumor histomorphology and scoring of immunohistochemical staining. Some of the tumor sections were lysed and chromatographed using SDS-PAGE followed by transfer onto a PVDF membrane. […] The membranes were then probed with horseradish peroxidase (HRP) tagged secondary antibodies and epitopes were detected using the ECL Plus Western Blotting Detection Reagent (GE Healthcare, Piscataway, N.J.). Cell proliferation and apoptosis assessed with Ki-67 and cleaved caspase-3 antibodies (Cell Signaling, Danvers, Mass.) using an immunohistochemistry kit per the manufacturer's instructions (BioGenex, Fremont, Calif.).

[3] = test system: 5637 bladder cancer cells; experiment: 72 hr cell viability assay (MTS) and combination index, 5637; type: cell-based, human; settings: single drug, 72 hr
Description: Median effect analysis to determine in vitro drug-drug interaction. […] PTUPB was dissolved in dimethyl sulfoxide (DMSO) to a final stock concentration of 10 mM. […] Cells were seeded at 2,000-3,000 cells and 100 μl of medium per well into 96-well plates (Becton Dickinson, Franklin Lakes, N.J.), and incubated overnight. Different concentrations of these two drugs were diluted in culture media and added to each well. The plates were then incubated for an additional 72 hours. The control group was dosed with 0.2% DMSO. Cell viability assays (MTS) were performed according to the manufacturer's protocol (Promega, Madison, Wis.). […] Dose-response curves were generated with GraphPad Prism 5 software (GraphPad Software Inc., La Jolla, Calif.). The combination indices (CI) were determined based on the method of Chou et al (26). CI values were calculated with CompuSyn software (http://www.combosyn.com/).

COX-1 = COX-1 inhibitory activity (Table 3); type: biochemical; parameters: dose or concentration left out as unconfirmed
[4] = test system: carboplatin-DNA adducts in BL0293 tumors; experiment: carboplatin-DNA adduct formation in vivo (accelerator mass spectrometry); settings: carboplatin alone; 24 hours after carboplatin
Description: (§4) Accelerator mass spectrometry to determine platinum-DNA adduct formation.
DNA was extracted using a Promega Wizard genomic DNA purification kit according to manufacturer's instructions. Ten micrograms of DNA per sample was submitted to Lawrence Livermore National Laboratory (LLNL) for AMS analysis using previously reported protocol (25).

[5] = test system: carboplatin-DNA adducts in 5637 bladder cancer cell line; experiment: carboplatin-DNA adduct formation in vitro (accelerator mass spectrometry)
Description: as §4
Cells were harvested at the 4 hr time point in one group of dishes and another group was washed and further incubated for 20 hr with fresh drug-free medium before cell harvest in order to determine DNA repair. Cell pellets were stored at −80° C. until DNA extraction.

Molecule	COX-1 (% inhibition) (COX-1) [%]	further results
CC(=O)Oc1ccccc1C(=O)O [Aspirin, aspirin]		COX-2 (IC50)/COX-1 (IC50) ratio (COX-1 and COX-2): 0.32
N.N.[Cl][Pt][Cl] [cisplatin, reference compound]		overall survival ([1]; BL0293, PTUPB 30 mg/kg orally once daily, cisplatin 2 mg/kg i.v.): 47.0 days and 47 days; anti-tumor activity, single agent ([1]; mice bearing BL0293 tumors): moderate anti-tumor activity; tumor growth [2]: resistant; levels of p-ERK and p-AKT (p-ERK and p-AKT): did not significantly diminish; IC50 [3]: 4.5 µM
CS(=O)(=O)c1ccc(-n2nc(CNC(=O)NC34CC5CC(CC(C5)C3)C4)cc2-c2ccccc2)cc1 [compound 1860, 1-Adamantan-1-yl-3-[1-(4-methanesulfonyl-phenyl)-5-phenyl-1H-pyrazol-3-ylmethyl]-urea]	12.7	
CS(=O)(=O)c1ccc(-n2nc(CNC(=O)Nc3cccc(C(F)(F)F)c3)cc2-c2ccccc2)cc1 [compound 1861, 1-[1-(4-Methanesulfonyl-phenyl)-5-phenyl-1H-pyrazol-3-ylmethyl]-3-(3-trifluoromethyl-phenyl)-urea]	7.8	
CS(=O)(=O)c1ccc(-n2nc(CCCNC(=O)Nc3cccc(C(F)(F)F)c3)cc2-c2ccccc2)cc1 [compound 1862, 1-{3-[1-(4-Methanesulfonyl-phenyl)-5-phenyl-1H-pyrazol-3-yl]-propyl}-3-(3-trifluoromethyl-phenyl)-urea]	6.4	
CC(C)(C)c1cc(CNC(=O)Nc2cccc(C(F)(F)F)c2)nn1-c1ccc(S(C)(=O)=O)cc1 [compound 2106, 1-[5-tert-Butyl-1-(4-methanesulfonyl-phenyl)-1H-pyrazol-3-ylmethyl]-3-(3-trifluoromethyl-phenyl)-urea]	2.4	
NS(=O)(=O)c1ccc(-n2nc(CNC(=O)Nc3cccc(C(F)(F)F)c3)cc2-c2ccccc2)cc1 [compound 2107, 4-{5-Phenyl-3-[3-(3-trifluoromethyl-phenyl)-ureidomethyl]-pyrazol-1-yl}-benzenesulfonamide]	16.9	
NS(=O)(=O)c1ccc(-n2nc(NC(=O)Nc3cccc(C(F)(F)F)c3)cc2-c2ccccc2)cc1 [compound 2121, 4-{5-Phenyl-3-[3-(3-trifluoromethyl-phenyl)-ureido]-pyrazol-1-yl}-benzenesulfonamide]	33.9	
Cc1ccc(-c2cc(CCCNC(=O)Nc3cccc(C(F)(F)F)c3)nn2-c2ccc(S(N)(=O)=O)cc2)cc1 [compound 2152, 4-(5-p-Tolyl-3-{3-[3-(3-trifluoromethyl-phenyl)-ureido]-propyl}-pyrazol-1-yl)-benzenesulfonamide]	12.1	
NS(=O)(=O)c1ccc(-n2nc(CCCNC(=O)Nc3ccccc3)cc2-c2ccccc2)cc1 [compound 2245, 4-{5-Phenyl-3-[3-(3-phenyl-ureido)-propyl]-pyrazol-1-yl}-benzenesulfonamide]	15.8	
NS(=O)(=O)c1ccc(-n2nc(CCCNC(=O)Nc3cccc(C(F)(F)F)c3)cc2-c2ccccc2)cc1 [compound 2246, 4-(5-Phenyl-3-{3-[3-(3-trifluoromethyl-phenyl)-ureido]-propyl}-pyrazol-1-yl)-benzenesulfonamide]	27.2	
NS(=O)(=O)c1ccc(-n2nc(CCCNC(=O)NC3CCCCCC3)cc2-c2ccccc2)cc1 [compound 2247, 4-{3-[3-(3-Cycloheptyl-ureido)-propyl]-5-phenyl-pyrazol-1-yl}-benzenesulfonamide]	10.2	
NS(=O)(=O)c1ccc(-n2nc(CCNC(=O)Nc3cccc(C(F)(F)F)c3)cc2-c2ccccc2)cc1 [compound 2313, 4-(5-Phenyl-3-{2-[3-(3-trifluoromethyl-phenyl)-ureido]-ethyl}-pyrazol-1-yl)-benzenesulfonamide]	22.0	
CS(=O)(=O)c1ccc(-n2nc(CNC(=O)NC3CCCCCC3)cc2-c2ccccc2)cc1 [compound 2321, 1-Cycloheptyl-3-[1-(4-methanesulfonyl-phenyl)-5-phenyl-1H-pyrazol-3-ylmethyl]-urea]	3.4	
CS(=O)(=O)c1ccc(-n2nc(CNC(=O)Nc3ccc(OC(F)(F)F)cc3)cc2-c2ccccc2)cc1 [compound 2323, 1-[1-(4-Methanesulfonyl-phenyl)-5-phenyl-1H-pyrazol-3-ylmethyl]-3-(4-trifluoromethoxy-phenyl)-urea]	10.4	
CS(=O)(=O)c1ccc(-n2nc(CNC(=O)Nc3ccc(C(F)(F)F)cc3)cc2-c2ccccc2)cc1 [compound 2324, 1-[1-(4-Methanesulfonyl-phenyl)-5-phenyl-1H-pyrazol-3-ylmethyl]-3-(4-trifluoromethyl-phenyl)-urea]	10.7	
CC(C)c1cccc(C(C)C)c1NC(=O)NCCCc1cc(-c2ccccc2)n(-c2ccc(S(N)(=O)=O)cc2)n1 [compound 2325, 4-(3-{3-[3-(2,6-Diisopropyl-phenyl)-ureido]-propyl}-5-phenyl-pyrazol-1-yl)-benzenesulfonamide]	6.2	
NS(=O)(=O)c1ccc(-n2nc(CCCNC(=O)NC34CC5CC(CC(C5)C3)C4)cc2-c2ccccc2)cc1 [compound 2326, 4-{3-[3-(3-Adamantan-1-yl-ureido)-propyl]-5-phenyl-pyrazol-1-yl}-benzenesulfonamide]	6.7	
NS(=O)(=O)c1ccc(-n2nc(CCCNC(=O)Nc3ccc(Cl)cc3)cc2-c2ccccc2)cc1 [compound 2327, 4-(3-{3-[3-(4-Chloro-phenyl)-ureido]-propyl}-5-phenyl-pyrazol-1-yl)-benzenesulfonamide]	15.2	
NS(=O)(=O)c1ccc(-n2nc(CCCNC(=O)Nc3ccc(OC(F)(F)F)cc3)cc2-c2ccccc2)cc1 [compound 2329, 4-(5-Phenyl-3-{3-[3-(4-trifluoromethoxy-phenyl)-ureido]-propyl}-pyrazol-1-yl)-benzenesulfonamide]	13.8	
Nc1ccn([C@@H]2O[C@H](CO)[C@@H](O)C2(F)F)c(=O)n1 [gemcitabine]		tumor growth [2]: resistant
COc1ccc2c(c1)c(CC(=O)O)c(C)n2C(=O)c1ccc(Cl)cc1 [indomethacin]		COX-2 (IC50)/COX-1 (IC50) ratio (COX-1 and COX-2): 33
O=C(NC12CC3CC(CC(C3)C1)C2)N[C@H]1CC[C@H](Oc2ccc(C(=O)O)cc2)CC1 [t-AUCB, trans-4-[4-(3-Adamantan-1-yl-ureido)-cyclohexyloxy]-benzoic acid]		potentiation of cisplatin with respect to inhibiting tumor growth ([2]; combined with cisplatin 2 mg/kg): moderate additive effect
carboplatin		carboplatin-DNA adduct levels in tumor DNA [4]: 1070±317 adducts/10^8 nt; DNA repair rate ([5]; 5637 cells): 21.2 +/−1.3 adducts/10^8 nt per hour; platinum-DNA adduct formation ([5]; after 4h, carboplatin 100 μM, PTUPB 10 μM simultaneously): 528±41 adducts per 10^8 nt; platinum-DNA adduct levels ([5]; at 24 hours (4 hours drug, 20 hours drug-free medium)): 104.1 +/−17.7 adducts/10^8 nt; carboplatin induced DNA adduct formation ([5]; pretreatment with 10 μM PTUPB for 5 hours, then carboplatin): 706 +/−26 adducts per 10^8 nt
